Results published in ChEMBL document CHEMBL1201862, “PubChem BioAssay data set” (2004).
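Protocol summary: plate cells (96-well), add compound at 5 concentrations, incubate 48 h, interpolate endpoints linearly. GI50 is the concentration that inhibits growth by half.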 Calls of active or inactive are those of the source. Rule as the data show it: active = GI50 up to about 1.1 µM and inactive = higher.

Key:
Assay in all cases: NCI-60 cell line screen, 48 h
Malme-3M = test system: Malme-3M
NCI-H460 = test system: NCI-H460
SF-295 = test system: SF-295
U-251 = test system: U-251
SNB-19 = test system: SNB-19
DMS-273 = test system: DMS-273
HOP-62 = test system: HOP-62
SF-268 = test system: SF-268
UACC-62 = test system: UACC-62
786-0 = test system: 786-0
HCT-15 = test system: HCT-15
NCI-H226 = test system: NCI-H226
SK-MEL-2 = test system: SK-MEL-2
HCT-116 = test system: HCT-116
A549 = test system: A549
HL-60 = test system: HL-60
HCC 2998 = test system: HCC 2998
OVCAR-5 = test system: OVCAR-5
SF-539 = test system: SF-539
CAKI-1 = test system: CAKI-1

Row | Compound | GI50 (Malme-3M) | GI50 (NCI-H460) | GI50 (SF-295) | GI50 (U-251) | GI50 (SNB-19) | GI50 (DMS-273) | GI50 (HOP-62) | GI50 (SF-268) | GI50 (UACC-62) | GI50 (786-0) | GI50 (HCT-15) [µM] | GI50 (NCI-H226) | GI50 (SK-MEL-2) | GI50 (HCT-116) | GI50 (A549) | GI50 (HL-60) | GI50 (HCC 2998) | GI50 (OVCAR-5) | GI50 (SF-539) | GI50 (CAKI-1)
1 | CC(=O)O[C@]12CCCCCCC1C1(O)C(O)CCC[C@H]12 (some centres undefined) | > 100 µM (inactive) | > 100 µM (inactive) | > 100 µM (inactive) | > 100 µM (inactive) | > 100 µM (inactive) | > 100 µM (inactive) | > 100 µM (inactive) | > 100 µM (inactive) | > 100 µM (inactive) | > 100 µM (inactive) | > 100 | > 100 µM (inactive) | > 100 µM (inactive) | > 100 µM (inactive) | > 100 µM (inactive) | > 10 µM (inactive) |  |  |  | 
2 | CC(=O)NC(CCCN)C(=O)NCc1ccccc1 (centres undefined) | > 100 µM (inactive) | > 100 µM (inactive) | > 100 µM (inactive) | > 100 µM (inactive) | > 100 µM (inactive) | > 100 µM (inactive) | > 100 µM (inactive) | > 100 µM (inactive) | > 100 µM (inactive) | > 100 µM (inactive) | > 100 | > 100 µM (inactive) | > 100 µM (inactive) | > 100 µM (inactive) | > 100 µM (inactive) |  | > 100 µM (inactive) | > 100 µM (inactive) | > 100 µM (inactive) | > 100 µM (inactive)
3 | CC1(CO)C(=O)OC12CCCCC2 (centres undefined) | > 100 µM (inactive) |  | > 100 µM (inactive) |  | > 100 µM (inactive) | > 100 µM (inactive) | > 100 µM (inactive) | > 100 µM (inactive) | > 100 µM (inactive) | > 100 µM (inactive) |  | > 100 µM (inactive) | > 100 µM (inactive) | > 100 µM (inactive) | > 100 µM (inactive) | > 100 µM (inactive) | > 100 µM (inactive) |  | > 100 µM (inactive) | > 100 µM (inactive)
4 | CC1=NN(C(=O)c2cc(Cl)cc([N+](=O)[O-])c2)C(=O)C1/N=N/c1ccccc1C(=O)O (centres undefined) | > 100 µM (inactive) | > 100 µM (inactive) | > 100 µM (inactive) | > 100 µM (inactive) | > 100 µM (inactive) | > 100 µM (inactive) |  | > 100 µM (inactive) | 69.5 µM (inactive) | > 100 µM (inactive) |  | > 100 µM (inactive) | > 100 µM (inactive) | > 100 µM (inactive) | > 100 µM (inactive) | > 100 µM (inactive) | > 100 µM (inactive) | > 100 µM (inactive) | > 100 µM (inactive) | > 100 µM (inactive)
5 | Cc1ccc([N+](=O)[O-])cc1NC(=O)c1cccc([N+](=O)[O-])c1O | 5.09 µM (inactive) | 12.2 µM (inactive) | 18 µM (inactive) | 15.9 µM (inactive) | 14.1 µM (inactive) | 11.9 µM (inactive) | 7.96 µM (inactive) | 14.6 µM (inactive) | 3.85 µM (inactive) | 28.9 µM (inactive) | 25 | 13.6 µM (inactive) | 7.98 µM (inactive) |  | 22.4 µM (inactive) | 5.01 µM (inactive) |  |  | 12.3 µM (inactive) | 17.8 µM (inactive)
6 | O=C(O)CCSC(=S)Nc1cccc(F)c1 | 48.6 µM (inactive) | 83.9 µM (inactive) | 28.7 µM (inactive) | 47.3 µM (inactive) | 45.2 µM (inactive) | 46.9 µM (inactive) | 56.4 µM (inactive) | 45.6 µM (inactive) | 13.4 µM (inactive) | > 100 µM (inactive) | 27 | 33.7 µM (inactive) |  | 97.3 µM (inactive) | 77.4 µM (inactive) |  | > 100 µM (inactive) | > 100 µM (inactive) | 26.1 µM (inactive) | 77.3 µM (inactive)
7 | O=C1N2Cc3c4ccc5c3CN3C(=O)N6Cc7c(ccc(c7CN1C6(c1ccccc1)C23c1ccccc1)OCCOCCOc1cc(Br)c(Br)cc1OCCOCCO4)OCCOCCOc1cc(Br)c(Br)cc1OCCOCCO5 (centres undefined) | 75.5 µM (inactive) | > 100 µM (inactive) |  | > 100 µM (inactive) | > 100 µM (inactive) | > 100 µM (inactive) | 40.8 µM (inactive) | > 100 µM (inactive) | > 100 µM (inactive) | > 100 µM (inactive) | 25.4 | > 100 µM (inactive) | 91 µM (inactive) | > 100 µM (inactive) | > 100 µM (inactive) |  | > 100 µM (inactive) |  | 20.1 µM (inactive) | > 100 µM (inactive)
8 | COc1cc2cc[n+](C)c(Cc3ccccc3)c2cc1OC | > 100 µM (inactive) | > 100 µM (inactive) | > 100 µM (inactive) | > 100 µM (inactive) | > 100 µM (inactive) | > 100 µM (inactive) |  | > 100 µM (inactive) | > 100 µM (inactive) | > 100 µM (inactive) | > 100 | > 100 µM (inactive) | > 100 µM (inactive) | > 100 µM (inactive) | > 100 µM (inactive) |  |  | > 100 µM (inactive) | > 100 µM (inactive) | 
9 | O=c1[nH]nc(-c2ccccc2)n1/N=C/c1cccc([N+](=O)[O-])c1 | > 100 µM (inactive) | 91.6 µM (inactive) | 59.7 µM (inactive) | 41.5 µM (inactive) | 98.6 µM (inactive) |  | 28.7 µM (inactive) | > 100 µM (inactive) | > 100 µM (inactive) | > 100 µM (inactive) | > 100 | > 100 µM (inactive) | > 100 µM (inactive) | > 100 µM (inactive) | > 100 µM (inactive) | > 100 µM (inactive) | > 100 µM (inactive) | > 100 µM (inactive) | 30.1 µM (inactive) | > 100 µM (inactive)
10 | CCCCCCCCCC[C@H](O)[C@H]1CC[C@@H]([C@@H](O)CC[C@H](O)[C@@H]2CCC(CCCCCCC[C@@H](O)CC3=C[C@H](C)OC3=O)O2)O1 (some centres undefined) | 3.4 µM (inactive) | 1.86 µM (inactive) | 1.73 µM (inactive) | 1.97 µM (inactive) | 1.61 µM (inactive) |  | 1.65 µM (inactive) | 1.85 µM (inactive) | 1.02 µM (active) | 1.79 µM (inactive) | 3.64 | 1.57 µM (inactive) | 1.39 µM (inactive) | 1.16 µM (inactive) | 1.77 µM (inactive) | 1.44 µM (inactive) | 4.33 µM (inactive) | 3.49 µM (inactive) | 1.79 µM (inactive) | 3.22 µM (inactive)
11 | CC(NC1=NCCO1)c1cccc([N+](=O)[O-])c1 (centres undefined) | > 100 µM (inactive) | > 100 µM (inactive) | > 100 µM (inactive) | > 100 µM (inactive) | > 100 µM (inactive) |  | > 100 µM (inactive) | > 100 µM (inactive) | > 100 µM (inactive) | > 100 µM (inactive) | > 100 | > 100 µM (inactive) | > 100 µM (inactive) | > 100 µM (inactive) | > 100 µM (inactive) | > 100 µM (inactive) | > 100 µM (inactive) | > 100 µM (inactive) | > 100 µM (inactive) | > 100 µM (inactive)
12 | COC1CC(N)(c2ccccc2)C(O)C(C)O1 (centres undefined) | > 100 µM (inactive) | > 100 µM (inactive) | > 100 µM (inactive) | > 100 µM (inactive) | > 100 µM (inactive) |  | > 100 µM (inactive) | > 100 µM (inactive) | > 100 µM (inactive) | > 100 µM (inactive) | > 100 | > 100 µM (inactive) | > 100 µM (inactive) | > 100 µM (inactive) | > 100 µM (inactive) | > 100 µM (inactive) | > 100 µM (inactive) | > 100 µM (inactive) | > 100 µM (inactive) | > 100 µM (inactive)
13 | COc1c(OC)c(O)c2c(=O)c(OC)c(-c3ccc4c(c3)OCO4)oc2c1O | > 100 µM (inactive) | > 100 µM (inactive) | 77.4 µM (inactive) | > 100 µM (inactive) | > 100 µM (inactive) |  | > 100 µM (inactive) | > 100 µM (inactive) | > 100 µM (inactive) | > 100 µM (inactive) | > 100 | > 100 µM (inactive) | > 100 µM (inactive) | 38.6 µM (inactive) | > 100 µM (inactive) | 19.5 µM (inactive) | > 100 µM (inactive) | > 100 µM (inactive) | > 100 µM (inactive) | > 100 µM (inactive)
14 | COc1ccc(-c2cn3c(nc4ccccc43)c(C)n2)cc1 | 69.2 µM (inactive) | 60.1 µM (inactive) | 55 µM (inactive) | 50.4 µM (inactive) | 44.9 µM (inactive) |  | 31.8 µM (inactive) | > 51.5 µM (inactive) | 35.3 µM (inactive) | 41 µM (inactive) | > 93.1 | > 68.5 µM (inactive) | 44.9 µM (inactive) | 85.1 µM (inactive) | 86.5 µM (inactive) | > 56.1 µM (inactive) | > 100 µM (inactive) | > 78.5 µM (inactive) | 76.7 µM (inactive) | 52.1 µM (inactive)
15 | O=C(Nc1c(-c2nc3ccccc3[nH]2)sc(=S)n1-c1ccccc1)c1ccccc1 | > 100 µM (inactive) |  | 97.5 µM (inactive) | > 100 µM (inactive) | 82 µM (inactive) | 91.8 µM (inactive) | 56.1 µM (inactive) | > 100 µM (inactive) | > 100 µM (inactive) | 91.2 µM (inactive) | > 100 | 24.5 µM (inactive) | > 100 µM (inactive) |  | > 100 µM (inactive) | > 100 µM (inactive) | > 100 µM (inactive) | > 100 µM (inactive) | 48.8 µM (inactive) | > 100 µM (inactive)
